Measured values from ChEMBL document CHEMBL2203252, “Brominated aromatic furanones and related esters from the ascidian Synoicum sp” (J Nat Prod, 2012).
In brackets after ≈: the same amount, converted by molar mass.

How the values were obtained:
[1] = Inhibition of Na+/K+-ATPase by fluorometric method
[2] = biological target: Isocitrate lyase (Candida albicans, UniProt Q9P8Q7); test: Inhibition of Candida albicans ATCC 10231 isocitrate lyase by spectrophotometric analysis
[3] = Inhibition of SortaseA
[4] = Cytotoxicity against human A549 cells after 48 hrs by MTT assay; type: cell-based; settings: read-out: LC50
[5] = Cytotoxicity against human K562 cells after 48 hrs by MTT assay; type: cell-based; settings: read-out: LC50
[6] = test system: Escherichia coli; test: Antimicrobial activity against Escherichia coli ATCC 35270 after 24 hrs; type: functional; settings: ATCC 35270, 24 h
[7] = test system: Proteus hauseri; test: Antimicrobial activity against Proteus hauseri NBRC 3851 after 24 hrs; type: functional; settings: NBRC 3851, 24 h
[8] = test system: Salmonella enterica; test: Antimicrobial activity against Salmonella enterica ATCC 14028 after 24 hrs; type: functional; settings: ATCC 14028, 24 h
[9] = test system: Kocuria rhizophila; test: Antimicrobial activity against Kocuria rhizophila NBRC 12708 after 24 hrs; type: functional; settings: NBRC 12708, 24 h
[10] = test system: Bacillus spizizenii; test: Antimicrobial activity against Bacillus subtilis ATCC 6633 after 24 hrs; type: functional; settings: ATCC 6633, 24 h
[11] = test system: Staphylococcus aureus; test: Antimicrobial activity against Staphylococcus aureus ATCC 6538p after 24 hrs; type: functional

Sequence of Isocitrate lyase (Q9P8Q7 whole entry): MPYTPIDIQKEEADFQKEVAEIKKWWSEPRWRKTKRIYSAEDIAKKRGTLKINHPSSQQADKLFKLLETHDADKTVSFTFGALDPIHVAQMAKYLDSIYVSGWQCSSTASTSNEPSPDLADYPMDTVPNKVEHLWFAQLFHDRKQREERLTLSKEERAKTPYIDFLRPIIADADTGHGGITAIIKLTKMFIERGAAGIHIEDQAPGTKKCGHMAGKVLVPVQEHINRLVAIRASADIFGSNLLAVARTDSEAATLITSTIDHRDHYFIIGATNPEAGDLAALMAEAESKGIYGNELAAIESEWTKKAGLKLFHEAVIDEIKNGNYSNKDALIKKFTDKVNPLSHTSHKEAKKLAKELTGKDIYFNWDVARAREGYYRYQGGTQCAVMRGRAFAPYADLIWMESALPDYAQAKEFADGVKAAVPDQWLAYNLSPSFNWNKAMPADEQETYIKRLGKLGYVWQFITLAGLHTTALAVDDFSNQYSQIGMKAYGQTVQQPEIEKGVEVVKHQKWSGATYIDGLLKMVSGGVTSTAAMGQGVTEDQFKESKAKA

Compound | IC50 [1] | IC50 [2] | IC50 [3] | CC50 at 48 h [4] | CC50 at 48 h [5] | MIC [6] | MIC [7] | MIC [8] | MIC [9] | MIC [10] | MIC [11]
COc1ccc(C=C2OC(=O)C([C@@H](O)c3cc(Br)c(OC)c(Br)c3)=C2c2cc(Br)c(O)c(Br)c2)cc1 | 13.5 µM | > 100 µM | > 120 µM | 38.5 µM | 50.8 µM | > 100 µg/mL | 3.1 µg/mL (≈ 4.16 µM) | 3.1 µg/mL (≈ 4.16 µM) | 3.1 µg/mL (≈ 4.16 µM) | 1.6 µg/mL (≈ 2.14 µM) | 6.3 µg/mL (≈ 8.44 µM)
COC(=O)C(C(=O)c1cc(Br)c(O)c(Br)c1)=C(C(=O)OC)c1cc(Br)c(O)c(Br)c1 | 28 µM | 26.3 µM | > 120 µM | 19.2 µM | 53.7 µM | > 100 µg/mL | 100 µg/mL (≈ 149 µM) | 50 µg/mL (≈ 74.4 µM) | 100 µg/mL (≈ 149 µM) | 50 µg/mL (≈ 74.4 µM) | 100 µg/mL (≈ 149 µM)
COC(=O)C(C(=O)c1cc(Br)c(O)c(Br)c1)=C(C(=O)OC)c1ccc(O)c(Br)c1 | 145 µM | 47.6 µM | > 120 µM | > 100 µM | 49.7 µM | > 100 µg/mL | > 100 µg/mL | > 100 µg/mL | > 100 µg/mL | > 100 µg/mL | > 100 µg/mL
O=C(O)CC[N+](=O)[O-] | – | 53.9 µM | – | – | – | – | – | – | – | – | –
CC1(C)S[C@@H]2[C@H](NC(=O)[C@H](N)c3ccccc3)C(=O)N2[C@H]1C(=O)O [AMPICILLIN] | – | – | – | – | – | 6.3 µg/mL (≈ 18 µM) | 1.6 µg/mL (≈ 4.58 µM) | 0.4 µg/mL (≈ 1.14 µM) | 0.4 µg/mL (≈ 1.14 µM) | 0.4 µg/mL (≈ 1.14 µM) | 0.4 µg/mL (≈ 1.14 µM)
O=C1O/C(=C\c2cc(Br)c(O)c(Br)c2)C(c2ccc(O)c(Br)c2)=C1C(=O)c1cc(Br)c(O)c(Br)c1 [CADIOLIDE E] | 2.5 µM | 8.9 µM | 78.8 µM | 40.4 µM | > 100 µM | > 100 µg/mL | 3.1 µg/mL (≈ 3.9 µM) | 1.6 µg/mL (≈ 2.01 µM) | 0.8 µg/mL (≈ 1.01 µM) | 1.6 µg/mL (≈ 2.01 µM) | 3.1 µg/mL (≈ 3.9 µM)
COc1c(Br)cc([C@H](O)C2=C(c3ccc(O)c(Br)c3)/C(=C/c3ccc(O)c(Br)c3)OC2=O)cc1Br [CADIOLIDE G] | 10.3 µM | 49.8 µM | > 120 µM | > 100 µM | > 100 µM | > 100 µg/mL | 3.1 µg/mL (≈ 4.23 µM) | 0.8 µg/mL (≈ 1.09 µM) | 3.1 µg/mL (≈ 4.23 µM) | 12.5 µg/mL (≈ 17.1 µM) | 3.1 µg/mL (≈ 4.23 µM)
COC(=O)C1=C(c2cc(Br)c(O)c(Br)c2)C(=O)OC1=C(c1cc(Br)c(O)c(Br)c1)c1cc(Br)c(O)c(Br)c1 [CADIOLIDE I] | 5 µM | 10.8 µM | > 120 µM | 52.7 µM | 51.2 µM | > 100 µg/mL | 6.3 µg/mL (≈ 6.97 µM) | 1.6 µg/mL (≈ 1.77 µM) | 0.8 µg/mL (≈ 0.885 µM) | 0.8 µg/mL (≈ 0.885 µM) | 0.8 µg/mL (≈ 0.885 µM)
COc1cccc2c1C(=O)c1c(O)c3c(c(O)c1C2=O)C[C@@](O)(C(=O)CO)C[C@@H]3O[C@H]1C[C@H](N)[C@H](O)[C@H](C)O1 [DOXORUBICIN] | – | – | – | 1.7 µM | 4.7 µM | – | – | – | – | – | –
C[C@@H]1O[C@@H](O[C@H]2C[C@@H](O)[C@]3(CO)[C@H]4[C@H](O)C[C@]5(C)[C@@H](C6=CC(=O)OC6)CC[C@]5(O)[C@@H]4CC[C@]3(O)C2)[C@H](O)[C@H](O)[C@H]1O [OUABAIN] | 5.8 µM | – | – | – | – | – | – | – | – | – | –
Para-Hydroxymercuribenzoic acid | – | – | 106 µM | – | – | – | – | – | – | – | –
